{"source": "paper PMC7501995", "about": "(Cell metabolism, 2020)", "key": {"[1]": {"system": "C57BL/6J mice rendered diabetic by multiple low-dose STZ", "experiment": "Multiple low-dose STZ-induced diabetes in C57BL/6J mice", "assay_type": "in vivo, mouse", "conditions": "STZ mice"}, "[2]": {"system": "human subjects with T1D", "conditions": "ref Ovalle et al., 2018; cited from earlier work"}}, "data": [{"smiles": "CN(C)C(=N)N=C(N)N", "note": "[metformin, reference compound]", "values": [{"measurement": "glucose homeostasis", "setting": "[1]; metformin 250 mg/kg/day in drinking water", "result": "improved glucose homeostasis"}]}, {"smiles": "COc1ccc(CCN(C)CCCC(C#N)(c2ccc(OC)c(OC)c2)C(C)C)cc1OC", "note": "(stereo not drawn) [verapamil]", "values": [{"measurement": "effect in randomized controlled trial in human subjects with T1D", "setting": "[2]", "result": "beneficial effects"}]}, {"smiles": "OC[C@H]1O[C@@H](c2ccc(Cl)c(Cc3ccc(O[C@H]4CCOC4)cc3)c2)[C@H](O)[C@@H](O)[C@@H]1O", "note": "[empagliflozin, reference compound]", "values": [{"measurement": "glucose homeostasis", "setting": "[1]; empagliflozin 10 mg/kg/day in drinking water", "result": "improved glucose homeostasis"}]}]}
